Patent publication US20250051263A1, “NOVEL IONIZABLE LIPIDS AND LIPID NANOPARTICLES AND METHODS OF USING THE SAME” (Sail Biomedicines, Inc., priority 2021, published 2025)

Columns and labels:
[1] = TNS (pKa) assay, apparent LNP pKa; format: physicochemical; details: Example 5 LNP lipid:DOPE:Plant Cholesterol:DMPE-PEG2k 35:16:46.5:2.5, FLUC/EPO 1:1 mRNA, N:P 6:1
Protocol: (protocol adapted from: A Novel Amino Lipid Series for mRNA Delivery: Improved Endosomal Escape and Sustained Pharmacology and Safety in Non-human Primates, Sabnis, Staci et al., Molecular Therapy, Volume 26, Issue 6, 1509-1519) 20 buffers (10 mM sodium phosphate, 10 mM sodium borate, 10 mM sodium citrate, and 150 mM sodium chloride, in Distilled Water) of unique pH values ranging from 3.0-12.0 were prepared using 1M sodium hydroxide and 1M hydrochloric acid. 3.25 uL of LNPs (0.04 mg/mL mRNA, in PBS) were incubated with 2 μL of TNS reagent (0.3 mM, in DMSO) and 90 μL of buffer for each pH value (described above) in a 96-well black-walled plate. Each pH condition was performed in triplicate wells. The TNS fluorescence was measured using a Biotek Cytation Plate reader at excitation/emission wavelengths of 321/445 nm. The fluorescence values were then plotted and fit using a 4-parameter sigmoid curve. From the fit, the pH value yielding the half-maximal fluorescence was calculated and reported as the apparent LNP pKa value.
For pKa measurement, a […] assay was conducted according to those described in Sabnis et al., Molecular Therapy, 26(6):1509-19), which is incorporated herein by reference in its entirety. Briefly, 20 buffers (10 mM sodium phosphate, 10 mM sodium borate, 10 mM sodium citrate, and 150 mM sodium chloride, in distilled Water) of unique pH values ranging from 3.0-12.0 were prepared using 1M sodium hydroxide and 1M hydrochloric acid. 3.25 μL of a LNP composition (0.04 mg/mL mRNA, in PBS) was incubated with 2 μL of TNS reagent (0.3 mM, in DMSO) and 90 μL of buffer for each pH value (described above) in a 96-well black-walled plate. Each pH condition was performed in triplicate wells. The TNS fluorescence was measured using a Biotek Cytation Plate reader at excitation/emission wavelengths of 321/445 nm. The fluorescence values were then plotted and fit using a 4-parameter sigmoid curve. From the fit, the pH value yielding the half-maximal fluorescence was calculated and reported as the apparent LNP pKa value.

Balb/c mice = test: In-vivo bioluminescent imaging after IV injection of Fluc mRNA LNP; details: for Bioluminescence (IV) Liver / Bioluminescence (IV) Lung / Bioluminescence (IV) Spleen / Bioluminescence (IV) Whole Body / Spleen: Liver Ratio: Example 5 LNP (DOPE 35:16:46.5:2.5), 5 μg FLUC + 5 μg EPO; for Bioluminescence (IV) Liver / Bioluminescence (IV) Lung / Bioluminescence (IV) Spleen / Bioluminescence (IV) Whole Body / Bioluminescence Liver / Bioluminescence Lung / Bioluminescence Spleen: 4-6 hours post-dose; for Bioluminescence (IV) Liver / Bioluminescence (IV) Lung / Bioluminescence (IV) Spleen / Bioluminescence (IV) Whole Body / Spleen: Liver Ratio / Bioluminescence Liver / Bioluminescence Lung / Bioluminescence Spleen: IV; for Spleen: Liver Ratio: ratio of bioluminescence; for Bioluminescence Liver / Bioluminescence Lung / Bioluminescence Spleen: LNP lipid:DSPC:Plant Chol.:DMPE-PEG2k 50:10:38.5:1.5, 5 ug Fluc+5 ug EPO mRNA; for bioluminescence in the liver, spleen, and lung: used as part of an ionizable lipid scaffold (LNP), Table 1
Protocol: 8-9 week old female Balb/c mice are utilized for bioluminescence-based ionizable lipid screening efforts. Mice are obtained from Jackson Laboratories (JAX Stock: 000651) and allowed to acclimate for one week prior to manipulations. Animals are placed under a heat lamp for a few minutes before introducing them to a restraining chamber. The tail is wiped with alcohol pads (Fisher Scientific) and 100 μL of a lipid nanoparticle composition descrbed above containing 10 ug total mRNA (5 ug Fluc+5 ug EPO) is injected intravenously using a 29 G insulin syringe (Covidien). Any resulting bleeding is stemmed using a sterile gauze pad (Fisher Scientific) and animals are placed back into their home cage. 4-6 hours post-dose, animals are injected with 200 μL of 15 mg/mL D-Luciferin (GoldBio) and placed in an isoflurane induction chamber set to deliver 2.5% isoflurane delivered at an oxygen flow rate of 1-2 liters per min. After 5 minutes of isoflurane exposure, mice are placed in set nose cones inside the IVIS Lumina LT imager (PerkinElmer). LivingImage software is utilized for imaging. Whole body bio-luminescence is captured at auto-exposure after which animals are removed from the IVIS and placed into a CO2 chamber for euthanasia. Cardiac puncture is performed on each animal after placing it in dorsal recumbency, and blood collection is performed using a 25 G insulin syringe (BD). Blood is collected in Lithium-Heparin coated tubes (Fisher Scientific) and immediately placed on ice. Once all blood samples are collected, tubes are spun at 2000 G for 10 minutes using a tabletop centrifuge and plasma is aliquoted into individual Eppendorf tubes (Fisher Scientific) and stored at −80 C for subsequent EPO quantification. EPO levels in plasma are determined using EPO MSD kit (Meso Scale Diagnostics).
8-9 week old female Balb/c mice were utilized for bioluminescence-based ionizable lipid screening efforts. Mice were obtained from Jackson Laboratories (JAX Stock: 000651) and allowed to acclimate for one week prior to manipulations. Animals were placed under a heat lamp for a few minutes before introducing them to a restraining chamber. The tail was wiped with alcohol pads (Fisher Scientific) and, for each LNP composition descrbed above, 100 μL of a lipid nanoparticle composition descrbed above containing 10 μg total mRNA (5 μg Fluc+5 μg EPO, 5 μg Fluc+5 μg Cre, or 5 μg EGFP) was injected intravenously using a 29 G insulin syringe (Covidien).
4-6 hours post-dose, animals were injected with 200 μL of 15 mg/mL D-Luciferin (GoldBio), and placed in set nose cones inside the IVIS Lumina LT imager (PerkinElmer). LivingImage software was utilized for imaging. Whole body bio-luminescence was captured at auto-exposure after which animals are removed from the IVIS and placed into a CO2 chamber for euthanasia. Cardiac puncture was performed on each animal after placing it in dorsal recumbency, and blood collection was performed using a 25 G insulin syringe (BD). Once all blood samples were collected, tubes are spun at 2000 G for 10 minutes using a tabletop centrifuge and plasma was aliquoted into individual Eppendorf tubes (Fisher Scientific) and stored at −80° C. for subsequent EPO quantification. EPO levels in plasma were determined using EPO MSD kit (Meso Scale Diagnostics).

CCCCCCCCCOC(=O)CCCCCCCN(CCCCCCCC(=O)OC(CCCCCCCC)CCCCCCCC)CCNC(=O)CCC(=O)NCCN(CCCCCCCC(=O)OCCCCCCCCC)CCCCCCCC(=O)OC(CCCCCCCC)CCCCCCCC [Compound 2213, nonyl 8-[2-[[4-[2-[(8-nonoxy-8-oxo-octyl)-[8-(1-octylnonoxy)-8-oxo-octyl]amino]ethylamino]-4-oxo-butanoyl]amino]ethyl-[8-(1-octylnonoxy)-8-oxo-octyl]amino]octanoate]
pKa (TNS) [1]: 6.54
Bioluminescence (IV) Liver (Balb/c mice): 2.2E+06
Bioluminescence (IV) Lung (Balb/c mice): 3.7E+03
Bioluminescence (IV) Spleen (Balb/c mice): 3.5E+05
Bioluminescence (IV) Whole Body (Balb/c mice): 1.0E+07
Spleen: Liver Ratio (Balb/c mice): 0.215

CCCCCCCCCCCOC(=O)CCCCCN(CCCCCCCC(=O)OC(CCCCCCCC)CCCCCCCC)CCOC(=O)OCCN(CCCCCCCC(=O)OC(CCCCCCCC)CCCCCCCC)CCCCCC(=O)OCCCCCCCCCCC [Compound 2218, 1-octylnonyl 8-[2-[2-[[8-(1-octylnonoxy)-8-oxo-octyl]-(6-oxo-6-undecoxy-hexyl)amino]ethoxycarbonyloxy]ethyl-(6-oxo-6-undecoxy-hexyl)amino]octanoate]
pKa (TNS) [1]: 4.34
Bioluminescence (IV) Liver (Balb/c mice): 1.9E+03
Bioluminescence (IV) Lung (Balb/c mice): 7.9E+02
Bioluminescence (IV) Spleen (Balb/c mice): 1.8E+03
Bioluminescence (IV) Whole Body (Balb/c mice): 4.1E+03
Spleen: Liver Ratio (Balb/c mice): 1.019
Bioluminescence Liver (Balb/c mice): 1.16E+03
Bioluminescence Lung (Balb/c mice): 7.20E+02
Bioluminescence Spleen (Balb/c mice): 8.14E+03
bioluminescence in the liver, spleen, and lung (Balb/c mice): improved bioluminescence

CCCCCCCCCCCOC(=O)CCCCCN(CCCCCCCC(=O)OC(CCCCCCCC)CCCCCCCC)CCNC(=O)CC(=O)NCCN(CCCCCCCC(=O)OC(CCCCCCCC)CCCCCCCC)CCCCCC(=O)OCCCCCCCCCCC [Compound 2220, 1-octylnonyl 8-[2-[[3-[2-[[8-(1-octylnonoxy)-8-oxo-octyl]-(6-oxo-6-undecoxy-hexyl)amino]ethylamino]-3-oxo-propanoyl]amino]ethyl-(6-oxo-6-undecoxy-hexyl)amino]octanoate]
pKa (TNS) [1]: 6.02
Bioluminescence (IV) Liver (Balb/c mice): 1.1E+07
Bioluminescence (IV) Lung (Balb/c mice): 1.8E+03
Bioluminescence (IV) Spleen (Balb/c mice): 7.5E+04
Bioluminescence (IV) Whole Body (Balb/c mice): 4.3E+07
Spleen: Liver Ratio (Balb/c mice): 0.004
Bioluminescence Liver (Balb/c mice): 1.03E+07
Bioluminescence Lung (Balb/c mice): 7.79E+03
Bioluminescence Spleen (Balb/c mice): 2.09E+06
bioluminescence in the liver, spleen, and lung (Balb/c mice): improved bioluminescence

CCCCCCCCCCCOC(=O)CCCCCN(CCCCCCCC(=O)OC(CCCCCCCC)CCCCCCCC)CCNC(=O)NCCN(CCCCCCCC(=O)OC(CCCCCCCC)CCCCCCCC)CCCCCC(=O)OCCCCCCCCCCC [Compound 2246, 1-octylnonyl8-[2-[2-[[8-(1-octylnonoxy)-8-oxo-octyl]-(6-oxo-6-undecoxy-hexyl)amino]ethylcarbamoylamino]ethyl-(6-oxo-6-undecoxy-hexyl)amino]octanoate]
pKa (TNS) [1]: 6.63
Bioluminescence (IV) Liver (Balb/c mice): 1.8E+07
Bioluminescence (IV) Lung (Balb/c mice): 3.7E+03
Bioluminescence (IV) Spleen (Balb/c mice): 1.3E+05
Bioluminescence (IV) Whole Body (Balb/c mice): 1.3E+08
Spleen: Liver Ratio (Balb/c mice): 0.007

CCCCCCCCCCCOC(=O)CCCCCN(CCCCCCCC(=O)OC(CCCCCCCC)CCCCCCCC)CCN1CCN(CCN(CCCCCCCC(=O)OC(CCCCCCCC)CCCCCCCC)CCCCCC(=O)OCCCCCCCCCCC)CC1 [Compound 2248, 1-octylnonyl 8-[2-[4-[2-[[8-(1-octylnonoxy)-8-oxo-octyl]-(6-oxo-6-undecoxy-hexyl)amino]ethyl]piperazin-1-yl]ethyl-(6-oxo-6-undecoxy-hexyl)amino]octanoate]
pKa (TNS) [1]: 6.1
Bioluminescence (IV) Liver (Balb/c mice): 5.6E+07
Bioluminescence (IV) Lung (Balb/c mice): 2.7E+04
Bioluminescence (IV) Spleen (Balb/c mice): 4.5E+05
Bioluminescence (IV) Whole Body (Balb/c mice): 3.5E+08
Spleen: Liver Ratio (Balb/c mice): 0.008
